The values that follow come from US20230193192A1 (priority 2021, published 2023).

Converted amounts (≈) assume the structure as drawn. Some results are limits rather than exact numbers.

The test system of data set [1] is NIH B38. Conditions: cited from earlier work.
The test system of data set [2] is LVS. Conditions: standard conditions; cited from earlier work.
Data set [3] deals with F. novicida. The data set is classed as cell-based, Francisella novicida. Particulars: for MIC: pH 7.1.
Data set [4] deals with F. tularensis LVS. The data set is classed as cell-based, Francisella tularensis holarctica Live Vaccine Strain. Particulars: for MIC: pH 7.1.
The subject of data set [5] is Francisella philomiragia. The data set is classed as cell-based.
In data set [6] the test system is Galleria mellonella (waxworm) larvae. Particulars: in vivo.
The subject of data set [7] is Francisella tularensis holarctica Live Vaccine Strain. Particulars: cited from earlier work.
Data set [8] deals with Francisella novicida. Particulars: cited from earlier work.
In data set [9] the test system is Francisella novicida. Particulars: cited from earlier work. This is another data set of the same source.
The test system of data set [10] is Francisella tularensis tularensis Schu4. Particulars: cited from earlier work.

A word on the MIC: it is the lowest concentration found to suppress growth.

Take `[H]/N=C(/N)N[C@H]1[C@H](O)[C@@H](O)[C@H](O[C@@H]2O[C@@H](C)[C@](O)(C=O)[C@H]2O[C@@H]2O[C@@H](CO)[C@H](O)[C@@H](O)[C@@H]2NC)[C@@H](N/C(N)=N\[H])[C@@H]1O` [Streptomycin, D-Streptamine, O-2-deoxy-2-(methylamino)-α-L-glucopyranosyl-(1->2)-O-5-deoxy-3-C-formyl-α-L-lyxofuranosyl-(1->4)-N1,N3-bis(aminoiminomethyl)-]: the MIC is 0.25 µg/mL (≈ 0.43 µM) in [1] and 0.38 µg/mL (≈ 0.653 µM) in data set [2].
For Colistin, the “This study Colistin” value in [3] is roughly 1024; in data set [4] it was greater than 1024; in [5], greater than 1024. Further, the minimum inhibitory concentration (MIC) in [3] is 1024 µg/mL; in [4], greater than 1024 µg/mL. The “Toxicity, survival of waxworms” value in data set [6] is on record as “killed the waxworms”. Further, in [7], the “Kirby Bauer Colistin” value is 0 mm.
As to Polymyxin B, the figures for the “This study Polymyxin B” value in data set [3], in data set [4] and in [5] were 256, 256 and 1024, respectively. Further, the values for the minimal inhibitory concentration (MIC) in data set [3], in [4] and in [8] were 256 µg/mL, 256 µg/mL and 38 µg/mL, respectively. Moreover, the “Toxicity, survival of waxworms” value in [6] is listed as “killed the waxworms”. In addition, the “Kirby Bauer Polymyxin B” value in data set [9] is on record as 19 mm; in [10], 10 mm.
